B1: hPRI: human placental RNase inhibitor (Boehringer Mannheim) (protein)
chain: SLDIQSLDIQCEELSDARWAELLPLLQQCQVVRLDDCGLTEARCKDISSALRVNPALAELNLRSNELGDVGVHCVLQGLQTPSCKIQKLSLQNCCLTGAGCGVLSSTLRTLPTLQELHLSDNLLGDAGLQLLCEGLLDPQCRLEKLQLEYCSLSAASCEPLASVLRAKPDFKELTVSNNDINEAGVRVLCQGLKDSPCQLEALKLESCGVTSDNCRDLCGIVASKASLRELALGSNKLGDVGMAELCPGLLHPSSRLRTLWIWECGITAKGCGDLCRVLRAKESLKELSLAGNELGDEGARLLCETLLEPGCQLESLWVKSCSFTAACCSHFSSVLAQNRFLLELQISNNRLEDAGVRELCQGLGQPGSVLRVLWLADCDVSDSSCSSLAATLLANHSLRELDLSNNCLGDAGILQLVESVRQPGCLLEQLVLYDIYWSEEMEDRLQALEKDKPSLRVIS

Key:
E. coli DH5α = assay: bactericidal colony-forming assay, E. coli; format: cell-based, Escherichia coli; conditions: free synthetic peptide; for LD99: E. coli
Procedure: FIGS. 5 A & B are graphs showing the bactericidal activity of rRNases A-1 and A-2. In panel (A) E. coli DH5α and in panel (B) S. aureus 502A were re-suspended in 100 mM sodium phosphate buffer, pH 7.4, and incubated with the indicated concentrations of chicken leukocyte RNase A-1 (open squares) and A-2 (closed circles) for 4 h at 37° C., plated on RNase-free LB agar, and grown overnight for colony counts.
RNase A polypeptides and fragments according to the invention that have bactericidal activity are particularly preferred for use in the treatment methods of the invention. The bactericidal and bacteriostatic activity of a particular RNase A polypeptides or fragments can be assessed by known protocols, such as that described in the methods section and the following described protocol, herein referred to as “a standard bacterial colony formation assay.” Bactericidal assays are well-described in the art, and are performed as described previously, and as exemplified in Examples 3-6. Briefly, an aliquot from a single bacterial colony overnight culture grown in Luria-Beitani (LB) broth is diluted 1:100 in sodium phosphate, pH 7.4, collected by centrifugation, and resuspended in sodium phosphate, pH 7.4. An aliquot of bacteria in buffer are incubated for 4 hr at 37° C. with recombinant protein or peptide at concentrations indicated, or diluent control and were then diluted 10, 100, or 1000-fold prior to plating on LB agar for overnight growth for colony counts.
Next, the bactericidal activity of chicken leukocyte RNases were examined using a colony-forming assay as previously described for eosinophil cationic protein [28]. […] E. coli was more susceptible to the bactericidal activity of leukocyte rRNase A-2 than was S. aureus, as 5 μM rRNase A-2 reduced the colony count of E. coli 10^7-fold, while reducing the colony count of S. aureus, only 100-fold. Recombinant RNase A-1 had no effect on colony number of E. coli or S. aureus concentrations up to and including […].
Bactericidal assays were performed as described previously with modifications. Briefly, 100 microliters from a single bacterial colony overnight culture grown in Luria-Bertani (LB) broth was diluted 1:100 in 100 mM sodium phosphate, pH 7.4, collected by centrifugation, and resuspended in 1 ml sodium phosphate, pH 7.4. Ten microliters of bacteria in buffer are incubated for 4 hr at 37° C. with 10 microliters recombinant protein or peptide at concentrations indicated, or diluent control and were then diluted 10, 100, or 1000-fold prior to plating on LB agar for overnight growth for colony counts. All points were determined in triplicate.

[1] = test system: Salmonella enterica serovar pullorum; assay: bactericidal assay on natural pathogen; format: cell-based; conditions: free peptide
Source text: FIG. 11 is a graph showing that the domain III peptide is bactericidal for S. enterica serovar pullorum which is a natural pathogen of domestic poultry. At the highest concentration tested, 100 micromolar, RNase A-2 domain III reduces the colony count from 100-1000 fold (2-3 logs).
The bactericidal actions of the A-2 domain sequences on natural pathogens was explored. The bactericidal activity of the leukocyte RNase A-2 domain III peptide on the natural pathogen Salmonella enterica serovar pullorum was determined using the bactericidal assays as previously described. S. enterica is a gram negative pathogen isolated initially from domestic poultry and is as such a natural target pathogen for a bactericidal agent isolated from chicken granulocytes. […] At the highest concentration tested, 100 micromolar, RNase A-2 domain III reduces the colony count from 100-1000 fold (2-3 logs). Thus, the A-2 domain sequences are useful bactericidal agents against natural pathogens.
Bactericidal assays were performed as described previously with modifications. Briefly, 100 microliters from a single bacterial colony overnight culture grown in Luria-Bertani (LB) broth was diluted 1:100 in 100 mM sodium phosphate, pH 7.4, collected by centrifugation, and resuspended in 1 ml sodium phosphate, pH 7.4. […] All points were determined in triplicate.

isoelectric point = format: physicochemical
[2] = test system: Gallus gallus leukocyte RNases; assay: RNase activity with human placental RNase inhibitor; format: biochemical; conditions: preincubation with 200 U hPRI, yeast tRNA substrate, pH 7.0
Procedure: FIGS. 4 A-D are graphs showing the ribonucleolytic activity of recombinant leukocyte RNases. (A) is a graph showing the optimum pH for RNase activity. Enzymatic activity was determined with 50 pmol rRNase A-1 (open squares) and rRNase A-2 (closed circles) that was incubated with 250 μg/ml yeast tRNA in 40 mM sodium phosphate buffer at the pHs indicated. Measurements of A260 per time were converted to pmol/s as described in reference 28 and Methods. (B) is a graph showing the initial rates for RNase activity. Enzymatic activity was determined as described in (A) with 40 mM sodium phosphate buffer, pH 7.0. (C) is a graph showing the substrate preference for RNase activity. […] A260 was measured after precipitation of undigested RNA at each of the time points indicated. […] RNase activity was measured with […] of bovine pancreatic RNase (left) or […] rRNase A-1 and rRNase A-2 (right) with 250 μg/ml of yeast tRNA as substrate with (+) or without (−) 200 U human placental RNase inhibitor (hPR1) in 40 mM sodium phosphate buffer, pH 7.0. […]
The ribonuclease (RNase) assay with yeast tRNA substrate has been described in detail elsewhere. […] In experiments in which the pH optimum was to be determined, 40 mM sodium phosphate buffers of pH 5.0, 5.5, 6.0, 6.5, 7.4 or 8.0 were used instead of the buffer of pH 7.0. […]

Row | Molecule | bactericidal activity of free peptide against E. coli (in words) (E. coli DH5α) | LD99 (E. coli DH5α) [µM] | bactericidal activity (in words) [1] | isoelectric point (pI) (isoelectric point) | inhibition of RNase activity [2]
1 | RYSGNQFNRRVRVGCRG [A-2 domain III peptide] | active | 10 | bactericidal | 12.3 | 
2 | SYTGNQFNHRVRVGCWG [A-1 domain III] | no significant activity |  |  | 9.9 | 
3 | TRIRTRFHT [scrambled domain II peptide] | reduced the colony count of E. coli to the same degree as the wild type A-2 domain II peptide |  |  |  | 
4 | TTRRHFRIT [A-2 domain II peptide] | reduced colony count of E. coli in a dose-dependent manner | 200 |  | 12.8 | 
5 | B1 |  |  |  |  | completely inhibited
